The supplement of paper PMC10307832

Key:
Assay in all cases: relative viability (nuclei count vs DMSO), 5 days (fraction); higher = more cells survive
NCI-H1915 = tested on: NCI-H1915
Summary of the method: (§1)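 Lung cancer cell lines were seeded in 1536-well plates and dosed by pin tool the next day, with either a single drug or a fixed anchor-drug dose combined with five library-drug doses (not always all listed) spaced in √10 steps. Five days later, one step fixed the cells and stained their nuclei (final 0.05% Triton X-100, 1% formaldehyde, 1 ug/ml Hoechst), and nuclei were counted on 4× images. Relative viability is the nuclei count in treated wells divided by the count in vehicle wells, and each value is the median of duplicate plates.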

NCI-H1563 = tested on: NCI-H1563
Summary of the method: as §1

201T = tested on: 201T
Summary of the method: as §1

LOU-NH91 = tested on: LOU-NH91
Summary of the method: as §1

NCI-H838 = tested on: NCI-H838
Summary of the method: as §1

HOP-62 = tested on: HOP-62
Summary of the method: as §1

NCI-H2126 = tested on: NCI-H2126
Summary of the method: as §1

NCI-H1355 = tested on: NCI-H1355
Summary of the method: as §1

NCI-H2347 = tested on: NCI-H2347
Summary of the method: as §1

SW 1573 = tested on: SW 1573
Summary of the method: as §1

NCI-H3122 = tested on: NCI-H3122
Summary of the method: as §1

CAL-12T = tested on: CAL-12T
Summary of the method: as §1

NCI-H1651 = tested on: NCI-H1651
Summary of the method: as §1

NCI-H650 = tested on: NCI-H650
Summary of the method: as §1

NCI-H322M = tested on: NCI-H322M
Summary of the method: as §1

HCC-78 = tested on: HCC-78
Summary of the method: as §1

LCLC-97TM1 = tested on: LCLC-97TM1
Summary of the method: as §1

NCI-H441 = tested on: NCI-H441
Summary of the method: as §1

SK-LU-1 = tested on: SK-LU-1
Summary of the method: as §1

BEN = tested on: BEN
Summary of the method: as §1

CCNC(=O)c1noc(-c2cc(C(C)C)c(O)cc2O)c1-c1ccc(CN2CCOCC2)cc1 [Luminespib] + CC(C)C[C@H](NC(=O)[C@H](Cc1ccccc1)NC(=O)c1cnccn1)B(O)O [Bortezomib] (partner 0.002 µM) showed a relative viability (NCI-H1915; first compound 0.002 µM) of 0.976, a relative viability (NCI-H1915; first compound 0.006325 µM) of 0.995 and a relative viability (NCI-H1915; first compound 0.02 µM) of 1.02. For the same molecule, the relative viability (NCI-H1915; first compound 0.06325 µM) was 0.942, the relative viability (NCI-H1915; first compound 0.2 µM) was 0.442 and the relative viability (NCI-H1563; first compound 0.002 µM) was 0.956. The relative viability (NCI-H1563; first compound 0.006325 µM) was 0.821, the relative viability (NCI-H1563; first compound 0.02 µM) was 0.535 and the relative viability (NCI-H1563; first compound 0.06325 µM) was 0.479. The relative viability (NCI-H1563; first compound 0.2 µM) was 0.507, the relative viability (201T; first compound 0.002 µM) was 1.11 and the relative viability (201T; first compound 0.006325 µM) was 1.07. The relative viability (201T; first compound 0.02 µM) was 0.937, the relative viability (201T; first compound 0.06325 µM) was 1.09 and the relative viability (201T; first compound 0.2 µM) was 1.09. It also gave a relative viability (LOU-NH91; first compound 0.002 µM) of 0.513, a relative viability (LOU-NH91; first compound 0.006325 µM) of 0.484 and a relative viability (LOU-NH91; first compound 0.02 µM) of 0.518. It also gave a relative viability (LOU-NH91; first compound 0.06325 µM) of 0.451, a relative viability (LOU-NH91; first compound 0.2 µM) of 0.389 and a relative viability (NCI-H838; first compound 0.002 µM) of 0.877. For the same molecule, the relative viability (NCI-H838; first compound 0.006325 µM) was 0.723, the relative viability (NCI-H838; first compound 0.02 µM) was 0.389 and the relative viability (NCI-H838; first compound 0.06325 µM) was 0.0924. For the same molecule, the relative viability (NCI-H838; first compound 0.2 µM) was 0.0934, the relative viability (HOP-62; first compound 0.002 µM) was 0.652 and the relative viability (HOP-62; first compound 0.006325 µM) was 0.924. For the same molecule, the relative viability (HOP-62; first compound 0.02 µM) was 0.852, the relative viability (HOP-62; first compound 0.06325 µM) was 0.856 and the relative viability (HOP-62; first compound 0.2 µM) was 0.0907. It also gave a relative viability (NCI-H2126; first compound 0.002 µM) of 1.09, a relative viability (NCI-H2126; first compound 0.006325 µM) of 1.03 and a relative viability (NCI-H2126; first compound 0.02 µM) of 0.79. For the same molecule, the relative viability (NCI-H2126; first compound 0.06325 µM) was 1.07, the relative viability (NCI-H2126; first compound 0.2 µM) was 0.823 and the relative viability (NCI-H1355; first compound 0.002 µM) was 1.14. For the same molecule, the relative viability (NCI-H1355; first compound 0.006325 µM) was 1.12, the relative viability (NCI-H1355; first compound 0.02 µM) was 0.571 and the relative viability (NCI-H1355; first compound 0.06325 µM) was 1. For the same molecule, the relative viability (NCI-H1355; first compound 0.2 µM) was 0.182, the relative viability (NCI-H2347; first compound 0.002 µM) was 0.947 and the relative viability (NCI-H2347; first compound 0.006325 µM) was 0.601. For the same molecule, the relative viability (NCI-H2347; first compound 0.02 µM) was 0.737, the relative viability (NCI-H2347; first compound 0.06325 µM) was 0.587 and the relative viability (NCI-H2347; first compound 0.2 µM) was 0.36. It also gave a relative viability (SW 1573; first compound 0.002 µM) of 1.07, a relative viability (SW 1573; first compound 0.006325 µM) of 0.941 and a relative viability (SW 1573; first compound 0.02 µM) of 0.96. It also gave a relative viability (SW 1573; first compound 0.06325 µM) of 0.117, a relative viability (SW 1573; first compound 0.2 µM) of 0.114 and a relative viability (NCI-H3122; first compound 0.002 µM) of 1.01. It also gave a relative viability (NCI-H3122; first compound 0.006325 µM) of 1.01, a relative viability (NCI-H3122; first compound 0.02 µM) of 1.05 and a relative viability (NCI-H3122; first compound 0.06325 µM) of 0.165. It also gave a relative viability (NCI-H3122; first compound 0.2 µM) of 0.199, a relative viability (CAL-12T; first compound 0.002 µM) of 1.04 and a relative viability (CAL-12T; first compound 0.006325 µM) of 0.929. The relative viability (CAL-12T; first compound 0.02 µM) was 0.539, the relative viability (CAL-12T; first compound 0.06325 µM) was 0.147 and the relative viability (CAL-12T; first compound 0.2 µM) was 0.149. It also gave a relative viability (NCI-H1651; first compound 0.002 µM) of 0.947, a relative viability (NCI-H1651; first compound 0.006325 µM) of 0.864 and a relative viability (NCI-H1651; first compound 0.02 µM) of 0.91. It also gave a relative viability (NCI-H1651; first compound 0.06325 µM) of 0.89, a relative viability (NCI-H1651; first compound 0.2 µM) of 0.793 and a relative viability (NCI-H650; first compound 0.002 µM) of 0.737. The relative viability (NCI-H650; first compound 0.006325 µM) was 0.716, the relative viability (NCI-H650; first compound 0.02 µM) was 0.651 and the relative viability (NCI-H650; first compound 0.06325 µM) was 0.124. For the same molecule, the relative viability (NCI-H650; first compound 0.2 µM) was 0.103, the relative viability (NCI-H322M; first compound 0.002 µM) was 1.21 and the relative viability (NCI-H322M; first compound 0.006325 µM) was 1.27. It also gave a relative viability (NCI-H322M; first compound 0.02 µM) of 1.05, a relative viability (NCI-H322M; first compound 0.06325 µM) of 1.32 and a relative viability (NCI-H322M; first compound 0.2 µM) of 0.814. It also gave a relative viability (HCC-78; first compound 0.002 µM) of 0.441, a relative viability (HCC-78; first compound 0.006325 µM) of 0.527 and a relative viability (HCC-78; first compound 0.06325 µM) of 0.745. It also gave a relative viability (HCC-78; first compound 0.2 µM) of 0.262, a relative viability (LCLC-97TM1; first compound 0.002 µM) of 0.876 and a relative viability (LCLC-97TM1; first compound 0.006325 µM) of 0.635. The relative viability (LCLC-97TM1; first compound 0.02 µM) was 0.638, the relative viability (LCLC-97TM1; first compound 0.06325 µM) was 0.0526 and the relative viability (LCLC-97TM1; first compound 0.2 µM) was 0.0579. The relative viability (NCI-H441; first compound 0.002 µM) was 0.566, the relative viability (NCI-H441; first compound 0.006325 µM) was 0.446 and the relative viability (NCI-H441; first compound 0.02 µM) was 0.236. The relative viability (NCI-H441; first compound 0.06325 µM) was 0.127, the relative viability (NCI-H441; first compound 0.2 µM) was 0.133 and the relative viability (SK-LU-1; first compound 0.002 µM) was 1.19. It also gave a relative viability (SK-LU-1; first compound 0.006325 µM) of 1.02, a relative viability (SK-LU-1; first compound 0.02 µM) of 0.716 and a relative viability (SK-LU-1; first compound 0.06325 µM) of 0.199. For the same molecule, the relative viability (SK-LU-1; first compound 0.2 µM) was 0.203, the relative viability (BEN; first compound 0.002 µM) was 0.914 and the relative viability (BEN; first compound 0.006325 µM) was 0.542. The relative viability (BEN; first compound 0.02 µM) was 0.438, the relative viability (BEN; first compound 0.06325 µM) was 0.424 and the relative viability (BEN; first compound 0.2 µM) was 0.239.
